{
  "source": "paper PMC7567642",
  "about": "“A Fully Integrated Assay Panel for Early Drug Metabolism and Pharmacokinetics Profiling” (Assay and Drug Development Technologies, 2020)",
  "key": {"[1]": {"experiment": "Automated shake-flask logD7.4 assay (1-octanol/phosphate buffer pH 7.4)", "type": "physicochemical", "method": "The assay starts with transfer of individual compound solutions into pools of 10 compounds, alongside two pool QCs, using a Hamilton STARplus liquid handling workstation. […] This step combines 4 μL each of 10 mM compound solutions to a total of 48 μL in an intermediate plate (pool QCs are at 5 mM each). These and subsequent transfers as outlined below involve fresh pipetting tips to eliminate risks of cross-contamination.\nThe next assay step involves transfer of 500 μL octanol from a tray to an empty deep well plate, to which 10 μL of each pool is subsequently transferred and thoroughly mixed by repetitive aspiration and dispensing. An octanol-saturated phosphate buffer at pH 7.4 is then added (500 μL) followed by sealing of the content with a PP-based lid. Vigorous shaking of the content is achieved through vortexing for 30 s and equilibration of compound between the two phases is further established through a 3 h incubation on a plate shaker.\nFollowing equilibration, the deep well plate is centrifuged to ensure separation between phases and the plate is next moved back to the Hamilton platform for sampling of 5 μL from the octanol phase. The sample is placed in a first dilution plate together with 495 μL of an AcN:H2O mix (1:2) containing FA (0.1%) and verapamil as internal standard (IS). The acidified and IS containing AcN solution, which is common for the logD7.4 and Sol assays, is referred to as the IS solution. The content is thoroughly mixed and next serially diluted to four additional plates with 10-fold dilutions to maximize the ability to detect weakly concentrated solutions and afford investigations of linearity in response.\nAfter sampling, the remaining octanol is removed from the deep well plate through careful pipetting, followed by sampling from the aqueous buffer. […]\nThe plates are next brought to the MS instrumentation (Xevo TQS; Waters) and read out using the established UPLC-MS/MS methods. […]"}, "[2]": {"set-up": "method as in PMID 19429424", "details": "published dried DMSO assays; cited from earlier work"}, "[3]": {"details": "QC control, literature value; cited from earlier work"}, "[4]": {"molecular_target": "Ataxia Telangiectasia Mutated (ATM) kinase (Homo sapiens, UniProt Q13315)", "sequence (Q13315 whole entry, species assumed, change not shown)": "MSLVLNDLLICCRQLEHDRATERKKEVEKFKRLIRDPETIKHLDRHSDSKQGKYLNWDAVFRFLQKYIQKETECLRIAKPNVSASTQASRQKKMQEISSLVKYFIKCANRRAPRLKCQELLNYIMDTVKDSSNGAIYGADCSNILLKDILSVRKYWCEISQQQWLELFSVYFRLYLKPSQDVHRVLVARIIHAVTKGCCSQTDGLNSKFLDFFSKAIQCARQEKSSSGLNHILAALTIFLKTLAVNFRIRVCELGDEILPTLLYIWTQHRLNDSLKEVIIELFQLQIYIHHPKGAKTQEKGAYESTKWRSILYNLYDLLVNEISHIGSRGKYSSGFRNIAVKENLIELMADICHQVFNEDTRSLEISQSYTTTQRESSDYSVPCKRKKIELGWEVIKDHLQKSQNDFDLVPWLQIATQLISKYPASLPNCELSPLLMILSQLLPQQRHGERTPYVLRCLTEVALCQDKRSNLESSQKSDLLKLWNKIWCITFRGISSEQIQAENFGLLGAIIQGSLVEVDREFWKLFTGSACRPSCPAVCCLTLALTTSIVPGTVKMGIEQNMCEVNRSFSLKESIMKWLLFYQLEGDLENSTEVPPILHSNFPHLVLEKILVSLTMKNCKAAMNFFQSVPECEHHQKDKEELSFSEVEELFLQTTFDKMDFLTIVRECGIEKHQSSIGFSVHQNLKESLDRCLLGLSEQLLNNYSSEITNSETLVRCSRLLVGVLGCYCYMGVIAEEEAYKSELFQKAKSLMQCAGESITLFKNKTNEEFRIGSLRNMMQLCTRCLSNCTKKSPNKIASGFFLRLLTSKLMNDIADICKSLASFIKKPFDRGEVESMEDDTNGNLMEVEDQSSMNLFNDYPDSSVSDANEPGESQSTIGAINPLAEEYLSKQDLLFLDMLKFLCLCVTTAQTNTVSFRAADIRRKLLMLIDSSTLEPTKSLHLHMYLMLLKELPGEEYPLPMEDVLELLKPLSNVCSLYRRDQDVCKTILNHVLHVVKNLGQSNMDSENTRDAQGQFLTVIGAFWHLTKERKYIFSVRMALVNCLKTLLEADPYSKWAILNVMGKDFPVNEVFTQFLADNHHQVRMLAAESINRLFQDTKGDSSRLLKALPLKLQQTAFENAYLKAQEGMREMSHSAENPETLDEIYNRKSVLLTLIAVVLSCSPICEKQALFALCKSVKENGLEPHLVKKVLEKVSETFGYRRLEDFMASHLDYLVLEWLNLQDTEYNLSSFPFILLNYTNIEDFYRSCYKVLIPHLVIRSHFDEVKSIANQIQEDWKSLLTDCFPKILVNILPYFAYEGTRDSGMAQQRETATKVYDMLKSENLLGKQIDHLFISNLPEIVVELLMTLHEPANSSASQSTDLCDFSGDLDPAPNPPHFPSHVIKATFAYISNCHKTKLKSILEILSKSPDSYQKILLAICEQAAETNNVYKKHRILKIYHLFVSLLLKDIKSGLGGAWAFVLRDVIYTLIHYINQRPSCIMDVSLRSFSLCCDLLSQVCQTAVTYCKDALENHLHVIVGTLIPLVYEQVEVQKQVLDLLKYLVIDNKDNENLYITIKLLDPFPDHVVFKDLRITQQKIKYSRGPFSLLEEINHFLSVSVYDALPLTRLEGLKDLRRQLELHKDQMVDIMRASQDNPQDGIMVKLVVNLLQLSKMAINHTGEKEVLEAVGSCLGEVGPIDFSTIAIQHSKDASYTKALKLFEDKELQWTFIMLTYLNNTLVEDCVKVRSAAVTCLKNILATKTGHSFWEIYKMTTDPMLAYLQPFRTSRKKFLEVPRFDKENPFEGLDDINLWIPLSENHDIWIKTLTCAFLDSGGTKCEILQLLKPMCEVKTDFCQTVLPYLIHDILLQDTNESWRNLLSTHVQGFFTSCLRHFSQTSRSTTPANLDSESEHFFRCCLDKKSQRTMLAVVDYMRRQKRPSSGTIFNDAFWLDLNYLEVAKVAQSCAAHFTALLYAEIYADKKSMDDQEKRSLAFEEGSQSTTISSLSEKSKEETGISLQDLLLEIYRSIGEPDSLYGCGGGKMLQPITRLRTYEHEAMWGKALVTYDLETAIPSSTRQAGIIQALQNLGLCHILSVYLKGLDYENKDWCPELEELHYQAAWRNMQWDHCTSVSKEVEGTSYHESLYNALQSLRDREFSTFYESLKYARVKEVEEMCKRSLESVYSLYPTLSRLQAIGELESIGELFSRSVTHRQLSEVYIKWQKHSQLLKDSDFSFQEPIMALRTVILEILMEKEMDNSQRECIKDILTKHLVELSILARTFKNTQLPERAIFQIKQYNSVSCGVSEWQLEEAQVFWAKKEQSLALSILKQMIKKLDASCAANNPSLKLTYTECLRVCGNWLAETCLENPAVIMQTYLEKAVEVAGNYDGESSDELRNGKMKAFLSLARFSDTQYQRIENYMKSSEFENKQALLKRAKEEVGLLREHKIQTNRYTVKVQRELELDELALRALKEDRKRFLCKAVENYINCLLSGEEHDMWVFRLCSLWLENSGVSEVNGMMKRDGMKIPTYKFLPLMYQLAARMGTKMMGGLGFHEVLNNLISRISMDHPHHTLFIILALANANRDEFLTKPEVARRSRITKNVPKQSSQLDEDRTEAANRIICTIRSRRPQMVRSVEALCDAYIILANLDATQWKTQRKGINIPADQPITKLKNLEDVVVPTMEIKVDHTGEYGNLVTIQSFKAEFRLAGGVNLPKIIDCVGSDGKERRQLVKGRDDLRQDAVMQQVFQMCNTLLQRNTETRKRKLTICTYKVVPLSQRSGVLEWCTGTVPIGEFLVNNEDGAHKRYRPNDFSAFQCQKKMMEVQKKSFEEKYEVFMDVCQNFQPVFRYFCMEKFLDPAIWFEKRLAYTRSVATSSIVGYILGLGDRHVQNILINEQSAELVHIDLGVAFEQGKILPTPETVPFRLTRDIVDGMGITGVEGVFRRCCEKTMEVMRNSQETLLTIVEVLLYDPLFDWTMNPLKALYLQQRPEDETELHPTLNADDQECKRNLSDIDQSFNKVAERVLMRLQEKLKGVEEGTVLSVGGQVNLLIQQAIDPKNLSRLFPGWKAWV", "details": "ATM inhibitor project"}, "[5]": {"experiment": "Dried DMSO solubility assay (Sol), phosphate buffer pH 7.4", "type": "physicochemical", "details": "ATM inhibitor project", "method": "Unlike the logD7.4 assay compounds are not pooled, but instead 50 μL of individual DMSO stock solutions are transferred to glass vials kept in a 3D printed rack that facilitates subsequent liquid transfers using a 96-well pipetting head on the Hamilton STARplus platform. There is no pool QC in the Sol workflow, instead this is replaced with the inclusion of three QCs, the positioning of which is randomized for each week. Solvent is evaporated and the dried compounds are resolubilized in 500 μL of aqueous phosphate buffer at pH 7.4.\nIndividual Stir Stixs are added to each glass vial using a drop dispenser from V&P Scientific, Inc., a rubber mat is used to seal the vials, and samples are then equilibrated under mixing for 20–24 h. […]\nThe process of centrifugation and transfer is repeated to remove any remaining debris, except that the 20 μL supernatant transfer combines sampling and pooling of 10 samples to a pool plate with 200 μL of an IS solution (same as in logD7.4). […] Finally, sample and standard plates are sealed and read out, analyzed, and qualified as described for the logD7.4 assay. Calculated solubility values (in μM) are exported into our internal database ensuring global availability to users."}, "human plasma": {"test_system": "human plasma", "details": "cited from earlier work"}},
  "note": "Read-outs that look alike come from different tables or passages of the source.",
  "data": [
    {"molecule": "CC(C)n1c(=O)n(C)c2cnc3cc(F)c(-c4ccc(OCCCN5CCCCC5)nc4)cc3c21", "values": [
      {"measurement": "logD at 3 h", "setting": "[1]; pH 7.4, ATM inhibitor project, DMPK Wave 1 panel", "result": 2.7}
    ]},
    {"molecule": "COc1ccc(CCN2CCC(Nc3nc4ccccc4n3Cc3ccc(F)cc3)CC2)cc1", "note": "[astemizole, Astemizole]", "values": [
      {"measurement": "solubility", "setting": "[2]", "result": 2.9, "unit": "µM"}
    ]},
    {"molecule": "CN(C)CCCN1c2ccccc2Sc2ccc(Cl)cc21", "note": "[chlorpromazine, Chlorpromazine]", "values": [
      {"measurement": "solubility", "setting": "[2]", "result": 450, "unit": "µM"}
    ]},
    {"molecule": "CN(C)CCC=C1c2ccccc2C=Cc2ccccc21", "note": "[cyclobenzaprine, Cyclobenzaprine]", "values": [
      {"measurement": "logD7.4", "setting": "[3]", "result": 2.8}
    ]},
    {"molecule": "CCC(CC)CNc1c(C(N)=O)cnc2ccc(C#N)cc12", "note": "[initial starting point]", "values": [
      {"measurement": "logD7.4", "setting": "[1]; ATM inhibitor project, DMPK Wave 1 panel", "result": 3.5},
      {"measurement": "potency on the target protein (in words)", "setting": "[4]", "result": "μM potency"},
      {"measurement": "solubility (in words)", "setting": "[5]", "result": "low μM solubility"}
    ]},
    {"molecule": "COCCc1ccc(OCC(O)CNC(C)C)cc1", "note": "(centres unmarked) [metoprolol, Metoprolol]", "values": [
      {"measurement": "fu (fraction unbound)", "setting": "human plasma", "result": "~85", "unit": "%"}
    ]},
    {"molecule": "COC(=O)C1=C(C)NC(C)=C(C(=O)OCCN(C)Cc2ccccc2)C1c1cccc([N+](=O)[O-])c1", "note": "(centres unmarked) [nicardipine, Nicardipine]", "values": [
      {"measurement": "logD at 3 h", "setting": "[1]; 1-octanol/phosphate buffer pH 7.4, pH 7.4, QC control, in-house data", "result": 4.5}
    ]},
    {"molecule": "O=C1NC(=O)C(c2ccccc2)(c2ccccc2)N1", "note": "[phenytoin, Phenytoin]", "values": [
      {"measurement": "solubility", "setting": "[2]", "result": 86, "unit": "µM"}
    ]},
    {"molecule": "CC(=O)CC(c1ccccc1)c1c(O)c2ccccc2oc1=O", "note": "(centres unmarked) [warfarin, Warfarin]", "values": [
      {"measurement": "fu (fraction unbound)", "setting": "human plasma", "result": "~1", "unit": "%"}
    ]}
  ]
}
